In US12178818B2, “Methods for treating immune thrombocytopenia by administering (R)-2-[3-[4-amino-3-(2-fluoro-4-phenoxy-phenyl)pyrazolo[3,4-d]pyrimidin-1-yl]piperidine-1-carbonyl]-4-methyl-4-[4-(oxetan-3-yl)piperazin-1-yl]pent-2-enenitrile” (Principia Biopharma Inc., priority 2019, dated 2024):

Legend:
[1] = tested on: 251-kinase panel; assay: 251-kinase panel, kinase selectivity; format: biochemical; conditions: 1 μM
[2] = tested on: human B cell activation; assay: human B cell activation in vitro; format: cell-based
[3] = tested on: Fc receptor signaling; assay: antibody mediated activation of immune cells in vitro; format: cell-based
[4] = tested on: rat collagen-induced arthritis model; assay: rat collagen-induced arthritis model; format: in vivo
[5] = tested on: rat antibody-mediated arthus model; assay: rat antibody-mediated arthus model; format: in vivo
[6] = tested on: spontaneous canine pemphigus foliaceus; assay: spontaneous canine pemphigus foliaceus; format: in vivo
[7] = tested on: blood platelets; assay: ex vivo platelet aggregation, standard panel of platelet agonists; format: cell-based, human; conditions: for platelet aggregation: ≤1 μM, standard panel of platelet agonists
[8] = in vivo
[9] = target: P-gp (Homo sapiens, UniProt P08183); conditions: not told
Sequence of P-gp (P08183 whole entry): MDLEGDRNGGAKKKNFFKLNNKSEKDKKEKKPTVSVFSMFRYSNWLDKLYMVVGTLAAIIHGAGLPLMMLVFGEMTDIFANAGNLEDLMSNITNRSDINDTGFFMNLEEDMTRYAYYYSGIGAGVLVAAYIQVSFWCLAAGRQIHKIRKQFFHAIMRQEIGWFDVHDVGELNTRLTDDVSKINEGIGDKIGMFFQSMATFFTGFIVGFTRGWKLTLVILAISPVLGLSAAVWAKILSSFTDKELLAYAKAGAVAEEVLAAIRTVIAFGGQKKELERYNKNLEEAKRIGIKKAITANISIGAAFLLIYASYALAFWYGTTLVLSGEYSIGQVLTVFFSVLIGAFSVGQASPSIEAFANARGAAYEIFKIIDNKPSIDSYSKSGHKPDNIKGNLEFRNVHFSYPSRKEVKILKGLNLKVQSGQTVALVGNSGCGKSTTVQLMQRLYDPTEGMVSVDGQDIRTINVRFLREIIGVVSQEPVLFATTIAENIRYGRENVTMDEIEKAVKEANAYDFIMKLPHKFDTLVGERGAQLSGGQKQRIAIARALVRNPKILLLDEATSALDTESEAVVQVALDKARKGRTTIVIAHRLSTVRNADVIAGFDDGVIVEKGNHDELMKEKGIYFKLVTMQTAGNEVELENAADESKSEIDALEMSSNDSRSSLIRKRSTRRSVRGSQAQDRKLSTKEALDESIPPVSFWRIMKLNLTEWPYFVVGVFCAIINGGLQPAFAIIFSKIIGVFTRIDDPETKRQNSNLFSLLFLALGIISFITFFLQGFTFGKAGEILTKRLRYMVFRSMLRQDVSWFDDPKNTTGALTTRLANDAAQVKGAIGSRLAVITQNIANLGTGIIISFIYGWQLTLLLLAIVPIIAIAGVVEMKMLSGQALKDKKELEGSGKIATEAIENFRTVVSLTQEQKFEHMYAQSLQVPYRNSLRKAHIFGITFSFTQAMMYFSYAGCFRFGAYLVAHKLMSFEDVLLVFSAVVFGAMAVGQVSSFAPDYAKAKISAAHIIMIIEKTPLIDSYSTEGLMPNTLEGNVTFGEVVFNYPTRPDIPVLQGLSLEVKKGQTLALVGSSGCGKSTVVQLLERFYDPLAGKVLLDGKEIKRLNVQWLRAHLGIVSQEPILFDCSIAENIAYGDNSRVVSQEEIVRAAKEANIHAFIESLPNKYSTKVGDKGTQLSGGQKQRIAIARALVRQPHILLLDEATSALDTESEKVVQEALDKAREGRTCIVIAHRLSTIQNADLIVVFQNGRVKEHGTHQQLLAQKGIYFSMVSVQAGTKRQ

[10] = tested on: CYP3A
[11] = in vivo; remark: listed apart in the source
Excerpt: TEAEs include all AEs that start on or after the first dose of study medication, or AEs that are present prior to the first dose of study medication, but their severity or relationship increases after the first dose of study medication up to and including the final study medication dosing date. Within each preferred term, patients are counted only once if they had more than one event reported during the dosing period.
Non-hematologic DLT is considered any >Grade 3 non-hematologic toxicity per the NCI Common Terminology Criteria for Adverse Events (CTCAE), version 4.0, with the following exceptions: laboratory TEAEs that are asymptomatic and return to baseline or to Grade 1 within 7 days; fatigue; nausea, vomiting or diarrhea that return to baseline or Grade 1 within 7 days; and systemic reactions (such as, e.g., fever, headache) that return to baseline or Grade 1 within 7 days. Any toxicity that, at the discretion of the Investigator, is thought to warrant withholding the study drug for more than 7 days is also considered a DLT.
The AE Collection Period begins at the time of the first screening/eligibility assessment and ends at the end of the study for each patient. […] An AE can therefore be any unfavorable and unintended sign (including an abnormal laboratory finding, for example), symptom, or disease temporally associated with the use of an investigational product, whether or not considered related to the product. Investigators are instructed to record all AEs encountered during the clinical study in detail from the date of participant consent throughout the study follow-up period. Pre-existing conditions that worsen during a study are reported as AEs.
Investigators are instructed to report all clinical AEs encountered during the study. The intensity of AEs is graded based on the NCI CTCAE, Version 4.0 or higher. For any AEs not found in the CTCAE, a description of intensity grading can be found below: • Grade 1: Mild; asymptomatic or mild symptoms; clinical or diagnostic observations only; intervention not indicated. • Grade 2: Moderate; minimal, local or noninvasive intervention indicated; limiting age-appropriate instrumental activities of daily living. • Grade 3: Severe or medically significant but not immediately life-threatening; hospitalization or prolongation of hospitalization indicated; disabling; limiting self-care activities of daily living.

[12] = Phase 1 study, healthy volunteers; cited from earlier work
[13] = clinical; conditions: human, in vivo
[14] = tested on: pemphigus patients; assay: human pemphigus (PV; Study PRN1008-005)
[15] = tested on: mouse model of anti-platelet driven immune thrombocytopenia; assay: mouse model of immune thrombocytopenia, platelet count

**Q.** What does the source list for `CC(C)(C=C(C#N)C(=O)N1CCC[C@@H](n2nc(-c3ccc(Oc4ccccc4)cc3F)c3c(N)ncnc32)C1)N1CCN(C2COC2)CC1` [PRN1008, (R)-2-[3-[4-amino-3-(2-fluoro-4-phenoxy-phenyl)pyrazolo[3,4-d]pyrimidin-1-yl]piperidine-1-carbonyl]-4-methyl-4-[4-(oxetan-3-yl)piperazin-1-yl]pent-2-enenitrile]?
**A.** number of kinases with >90% inhibition [1]: 6 kinases; human B cell activation [2]: profoundly inhibits; antibody (IgG, IgE) mediated activation of immune cells via Fc receptor signaling [3]: blocks; anti-inflammatory effects [4]: rapid and significant anti-inflammatory effects; anti-inflammatory effects [5]: rapid and significant anti-inflammatory effects; anti-inflammatory effects [6]: rapid and significant anti-inflammatory effects; platelet aggregation ([7]; blood of ITP patients): no effect; platelet aggregation ([7]; blood of healthy volunteers): no effect; collagen-induced platelet aggregation ([7]; normal or ITP patient platelet samples, clinically relevant concentrations): did not impact; impact of food on extent of absorption [8]: does not appear to impact; P-gp substrate [9]: substrate; CYP3A inhibitor [10]: inhibitor; CYP3A substrate [10]: substrate; All related TEAEs, Grade 1 ([11]; human): 10 (21) n (%); All related TEAEs, Grade 2 ([11]; human): 11 (23) n (%); Related TEAEs, Abdominal distension, Grade 1/2 ([11]; human): 3 (10) n (%); Related TEAEs, All TEAEs, Grade 1/2 ([11]; human): 11 (35) n (%); Related TEAEs, Diarrhea, Grade 1 ([11]; human): 14 (30) n (%); Related TEAEs, Diarrhea, Grade 1/2 ([11]; human): 7 (23) n (%); Related TEAEs, Diarrhea, Grade 2 ([11]; human): 2 (4) n (%); Related TEAEs, Fatigue, Grade 1 ([11]; human): 5 (11) n (%); Related TEAEs, Fatigue, Grade 1/2 ([11]; human): 3 (10) n (%); Related TEAEs, Fatigue, Grade 2 ([11]; human): 1 (2) n (%); Related TEAEs, Nausea, Grade 1 ([11]; human): 12 (26) n (%); Related TEAEs, Nausea, Grade 1/2 ([11]; human): 8 (26) n (%); Related TEAEs, Nausea, Grade 2 ([11]; human): 1 (2) n (%); dose-limiting toxicities [11]: No dose-limiting toxicities were observed; related serious adverse events [11]: No related serious adverse events were reported; thrombotic events [11]: no thrombotic events; treatment related bleeding or thrombotic events [11]: no reported treatment related bleeding or thrombotic events; most commonly reported adverse events [12]: gastrointestinal adverse events, including nausea/vomiting and diarrhea; serious adverse events or deaths [12]: No serious adverse events or deaths were reported; Tmax [13]: ~2.5 h; half-life ([13]; po): 3 to 4 h; onset of clinical effect in most pemphigus patients ([14]; Study PRN1008-005): ≤ 4 weeks; anti-inflammatory effects ([14]; human pemphigus vulgaris (PV)): rapid and significant anti-inflammatory effects; platelet decrease from baseline ([15]; 10 mg/kg/d, anti-platelet challenge (vehicle 83.1%)): 71.9%; platelet-loss (consumption) ([15]; mouse model of immune thrombocytopenia): significant dose dependent reduction
